Experimental data: PMC7904827 (Scientific Reports, 2021)
Where a name gives a salt, the structure may show the parent alone.

Assays:
[1] = ICRF-193 release from GK-667 in rabbit plasma in vitro; format: in vitro ADME; conditions: GK-667 10 and 100 µM, 37 °C
Protocol: (§1) From all of the above described experiments, samples were taken at predefined intervals, treated and immediately analyzed. All experiments were performed in four replicates, and the results are expressed as the mean ± SD.

[2] = Solubility and stability of the GK-667 dosing solution in saline; format: physicochemical
Protocol: This dose of the prodrug was easily soluble in a commercially available saline solution (sodium chloride 0.9%, B-Braun, Germany) at a concentration of 5 mg/mL, which is convenient for administration to rabbits as an experimental animal model and could also be used for future pharmacodynamics experiments.
GK-667 was freshly dissolved in saline (5 mg/mL) before each administration. New Zealand White male rabbits (n = 6, ∼3.8 kg) received GK-667 (5 mg/kg) administered as a single slow (2 min) intravenous dose bolus to the ear marginal vein. Blood (∼1 mL) was sampled from veins on the contralateral ear at selected time points after drug administration (5 min to 9 h) into BD Vacutainers (BD Biosciences, Plymouth, UK) containing lithium heparin. Collected blood samples were immediately centrifuged (2 min, 3000 rpm, 4 °C), and plasma samples were harvested directly.

[3] = Incubation in DMEM in an incubator (5% CO2, 37 °C) without cells; format: in vitro ADME; conditions: 100 µM
Protocol: Herein, incubations were performed in DMEM (100 μM) in a CelCulture Incubator (5% CO2, 37 °C, ESCO, USA) to mimic the conditions of the in vitro cytoprotective assay, and the results were compared to those from the saline buffer (116 mM NaCl, 5.3 mM KCl, 1.2 mM MgSO4, 1 mM CaCl2, 1.13 mM NaH2PO4, 5 mM glucose, and 20 mM HEPES, pH = 7.4).
as §1

[4] = Process stability in untreated plasma; format: in vitro ADME, rabbit; conditions: within 10 min
Protocol: Linearity was tested within the concentration range of 0.2 – 100 μM for all compounds in DMEM, the buffer and plasma and 10-100 pmol/106cells in NVCMs (method I). For method II, the concentration ranges 0.01-15 μM and 0.01-1 μM were used for determination of ICRF-193 and ICRF-193met in plasma, respectively. Unweighted and weighted (1/x and 1/x2) linear regression was applied to obtain the best fitting calibration model. […]
(§2) Stability of the analytes was examined at low and high concentrations. Process s tability (n=3) in plasma was tested for 20 min at either laboratory temperature (23 °C) or on ice (4 °C, only for GK-667). Post-preparation stability was examined for 8 to 10 h in an autosampler (8 °C, n=3) for all treated matrices. […]

[5] = test system: neonatal ventricular cardiomyocytes (NVCMs); experiment: Toxicity of the prodrugs alone in NVCMs (LDH release); format: cell-based, rat
Protocol: After 3 h, DAU solution (1.2 µM) was added to the media. After another 3 h, the medium was replaced with new (drug-free) exposure medium, and the cardiomyocytes were then kept until the end of the experiment. In addition to cytoprotective properties, the toxicity of the studied agent was also examined; this experiment was performed as described above with only the DAU addition step omitted.
Forty-five hours after the last medium exchange, a sample of medium was taken from each well to assess lactate dehydrogenase (LDH) activity[27]–[29]. For details, see the Supplementary material.
1.5 LDH activity evaluation
The control wells were treated with lysis buffer (0.1 M potassium phosphate, 1% Triton
X-100, 1 mM DTT, 2 mM EDTA; pH 7.8; 15 min; room temperature) to measure the total
cellular LDH level (sum of the activity in the control medium and the lysate). The activity of
LDH was assayed in Tris-HCl buffer (pH 8.9) containing 35 mM sodium lactate and 5 mM
NAD+. The rate of NAD+ reduction was monitored spectrophotometrically at 340 nm for 2 min.
The slope of the linear region and molar absorption coefficient e = 6.22*10 3 M/cm were used
to calculate the LDH activity, and the data were expressed as a percentage of total L DH activity. […]

[6] = ICRF-193 release from the prodrugs during incubation in DMEM (thermomixer, UHPLC-MS/MS); format: in vitro ADME; conditions: 100 µM, 37 °C
Protocol: All samples were spiked with the internal standards. DMEM or buffer (100 μL) was diluted with an ice-cold methanol/water mixture (20:80, v/v), mixed and analyzed. Plasma (50 μL) was precipitated with ice-cold methanol (1:5, v/v), mixed (20 s) and centrifuged (10 min, 10,000 rpm, 4 °C). NVCM pellets (4.8 × 10^6 cells) were precipitated with ice-cold methanol (250 μL), mixed (20 s), sonicated in a cold ultrasonic bath (75 s), mixed (30 s) and centrifuged (10 min, 10,000 rpm, 4 °C). The supernatants from the plasma and NVCM extractions were filtered (0.22 μm, PVDF) prior to analysis. For assay of the prodrugs, the samples were acidified with formic acid to a final concentration of 0.5%.
The samples were analyzed using two UHPLC instruments both coupled to a triple quadrupole mass spectrometer. […] Positive ionization mode was used in both methods. The analytical columns tested are characterized in the Supplementary materials.
The prodrugs (100 μM) were incubated (37 °C) in DMEM in a thermomixer (Thermomixer Comfort, Eppendorf, Germany) under gentle mixing (350 rpm) for 48 h.
as §1

[7] = Post-preparation stability of the extracted analytes in autosampler (8 °C); format: physicochemical
Protocol: Linearity was tested within the concentration range of 0.2 – 100 μM for all compounds in DMEM, the buffer and plasma and 10-100 pmol/106cells in NVCMs (method I). For […]
Unweighted and weighted (1/x and 1/x2) linear regression was applied to obtain the best fitting calibration model.
Accuracy and precision were calculated at 4 levels (LLOQ, low, medium and high concentrations). Five quality control (QC) samples were used for all concentration levels. […]
as §2
plasma was tested at -80 °C and the freezing cycle was repeated twice (n=3). The buffer, DMEM, NVCMs and plasma samples containing GK -667 from in vitro studies and from first intervals of pharmacokinetic study (up to 20 min) w ere treated and analyzed immediately after […]

C[C@H]([C@H](C)N1CC(=O)N(COC(=O)CN)C(=O)C1)N1CC(=O)N(COC(=O)CN)C(=O)C1 [GK-667, meso-2,3-bis(4-(2-aminoacetoxymethyl)-3,5-dioxopiperazin-1-yl)butane tetrahydrochloride]
metabolism of the prodrug in plasma [1]: rapidly metabolized
time the saline solution stays physically and chemically stable ([2]; 5 mg/mL in saline, 20 °C): at least 1 h
GK-667 concentration remaining in saline solution ([2]; 5 mg/mL in saline, 20 °C, 1 h): ≥ 95 % of the initial amount
solubility ([2]; saline (sodium chloride 0.9%)): ≥ 5000 µg/mL
degradation in DMEM without cells [3]: rapidly degraded
GK-667 decomposed ([4]; plasma samples at room temperature (23 °C)): ~50%
GK-667 decomposed ([4]; plasma samples on ice): less than 6%
cytotoxicity of the prodrug alone towards NVCMs ([5]; LDH release, without DAU): nontoxic on its own
LDH release, statistical significance compared to control ([5]; prodrug alone 1–100 µM, NVCMs, n.s. or c in Fig. S2): n.s.
conversion to the inactive metabolite ICRF-193met ([6]; AUC0–3 h and AUC0–48 h, compared with the other prodrugs): lowest conversion
AUC0–3 h of ICRF-193 concentrations ([6]; GK-667 compared with GK-678): no statistically significant differences
AUC0–48 h of ICRF-193 concentrations ([6]; GK-667 compared with GK-678): significantly higher
percentage of initial concentration in autosampler ([7]; extracted DMEM, 100 µM, 0 h): 100.1%
percentage of initial concentration in autosampler ([7]; extracted DMEM, 100 µM, 8 h): 92.2%
percentage of initial concentration in autosampler ([7]; extracted DMEM, 100 µM, 10 h): 90.2%
percentage of initial concentration in autosampler ([7]; extracted NVCMs, 100 pmol/106 cells, 0 h): 103.3%
percentage of initial concentration in autosampler ([7]; extracted NVCMs, 100 pmol/106 cells, 8 h): 105.2%
percentage of initial concentration in autosampler ([7]; extracted NVCMs, 100 pmol/106 cells, 10 h): 103.3%
percentage of initial concentration in autosampler ([7]; extracted buffer, 100 µM, 0 h): 99.5%
percentage of initial concentration in autosampler ([7]; extracted buffer, 100 µM, 8 h): 92.9%
percentage of initial concentration in autosampler ([7]; extracted buffer, 100 µM, 10 h): 92.8%
percentage of initial concentration in autosampler ([7]; extracted plasma, 100 µM, 0 h): 101.5%
percentage of initial concentration in autosampler ([7]; extracted plasma, 100 µM, 8 h): 102.1%
percentage of initial concentration in autosampler ([7]; extracted plasma, 100 µM, 10 h): 102.7%
